Species: Rattus norvegicus
Experiment: DrugMatrix - Regimen: Daily Repeat
Type: toxicity, organism-based, Sprague-Dawley
Parameters: regimen Daily Repeat, gender Male, age 6-8 weeks
Settings: in vivo, po, 1200 mg/kg, route oral GAVAGE, dose level High, vehicle .5 % CMC; for ABSOLUTE BASOPHIL / ABSOLUTE EOSINOPHIL / ABSOLUTE LYMPHOCYTE / ABSOLUTE MONOCYTE / ABSOLUTE SEGMENTED NEUTROPHIL / BASOPHIL / EOSINOPHIL / ERYTHROCYTE COUNT / HEMATOCRIT / HEMOGLOBIN / LEUKOCYTE COUNT / LYMPHOCYTE / MEAN CORPUSCULAR HEMOGLOBIN / MEAN CORPUSCULAR HEMOGLOBIN CONCENTRATION / MEAN CORPUSCULAR VOLUME / MONOCYTE / NEUTROPHIL / NUCLEATED RED BLOOD CELLS / PLATELET COUNT: tissue Blood; for ALANINE AMINOTRANSFERASE / ALBUMIN / ALKALINE PHOSPHATASE / ASPARTATE AMINOTRANSFERASE / BLOOD UREA NITROGEN / CARBON DIOXIDE / CHLORIDE / CHOLESTEROL / CREATININE / GLUCOSE / LACTATE DEHYDROGENASE / LIPASE / PHOSPHORUS / POTASSIUM / SODIUM / TOTAL BILIRUBIN / TOTAL PROTEIN / URIC ACID: tissue Plasma

Nc1ccc(Cl)cc1[N+](=O)[O-] [4-CHLORO-2-NITROANILINE]
ABSOLUTE BASOPHIL (120 h, time 5 day): 0 CELLS/uL
ABSOLUTE EOSINOPHIL (120 h, time 5 day): 100.67 CELLS/uL
ABSOLUTE LYMPHOCYTE (120 h, time 5 day): 9384 CELLS/uL
ABSOLUTE MONOCYTE (120 h, time 5 day): 183 CELLS/uL
ABSOLUTE SEGMENTED NEUTROPHIL (120 h, time 5 day): 1099 CELLS/uL
BASOPHIL (120 h, time 5 day): 0%
EOSINOPHIL (120 h, time 5 day): 1%
ERYTHROCYTE COUNT (120 h, time 5 day): 6.3 x10E6/uL
HEMATOCRIT (120 h, time 5 day): 37.27%
HEMOGLOBIN (120 h, time 5 day): 13.47 G/DL
LEUKOCYTE COUNT (120 h, time 5 day): 10.77 x10E3/uL
LYMPHOCYTE (120 h, time 5 day): 87%
MEAN CORPUSCULAR HEMOGLOBIN (120 h, time 5 day): 21.43 pg
MEAN CORPUSCULAR HEMOGLOBIN CONCENTRATION (120 h, time 5 day): 36.17 G/DL
MEAN CORPUSCULAR VOLUME (120 h, time 5 day): 59.17 fL
MONOCYTE (120 h, time 5 day): 1.67%
NEUTROPHIL (120 h, time 5 day): 10.33%
NUCLEATED RED BLOOD CELLS (120 h, time 5 day): 0 /100WBC
PLATELET COUNT (120 h, time 5 day): 947 x10E3/uL
ALANINE AMINOTRANSFERASE (120 h, time 5 day): 49 u/L
ALBUMIN (120 h, time 5 day): 4.1 G/DL
ALKALINE PHOSPHATASE (120 h, time 5 day): 387 u/L
ASPARTATE AMINOTRANSFERASE (120 h, time 5 day): 69 u/L
BLOOD UREA NITROGEN (120 h, time 5 day): 12.67 mg/dL
CARBON DIOXIDE (120 h, time 5 day): 31 mmol/L
CHLORIDE (120 h, time 5 day): 102.67 MEQ/L
CHOLESTEROL (120 h, time 5 day): 97.33 mg/dL
CREATININE (120 h, time 5 day): 0.18 mg/dL
GLUCOSE (120 h, time 5 day): 126.33 mg/dL
LACTATE DEHYDROGENASE (120 h, time 5 day): 87 u/L
LIPASE (120 h, time 5 day): 10 u/L
PHOSPHORUS (120 h, time 5 day): 12.2 mg/dL
POTASSIUM (120 h, time 5 day): 7.1 MEQ/L
SODIUM (120 h, time 5 day): 147.03 MEQ/L
TOTAL BILIRUBIN (120 h, time 5 day): 0.23 mg/dL
TOTAL PROTEIN (120 h, time 5 day): 6.2 G/DL
URIC ACID (120 h, time 5 day): 1.5 mg/dL
ABSOLUTE BASOPHIL ([…], time 14 day): 0 CELLS/uL
ABSOLUTE EOSINOPHIL ([…], time 14 day): 305.4 CELLS/uL
ABSOLUTE LYMPHOCYTE ([…], time 14 day): 16745.4 CELLS/uL
ABSOLUTE MONOCYTE ([…], time 14 day): 700 CELLS/uL
ABSOLUTE SEGMENTED NEUTROPHIL ([…], time 14 day): 2009.2 CELLS/uL
BASOPHIL ([…], time 14 day): 0%
EOSINOPHIL ([…], time 14 day): 1.6%
ERYTHROCYTE COUNT ([…], time 14 day): 6.12 x10E6/uL
HEMATOCRIT ([…], time 14 day): 34.88%
HEMOGLOBIN ([…], time 14 day): 12.64 G/DL
LEUKOCYTE COUNT ([…], time 14 day): 19.76 x10E3/uL
LYMPHOCYTE ([…], time 14 day): 84.4%
MEAN CORPUSCULAR HEMOGLOBIN ([…], time 14 day): 20.64 pg
MEAN CORPUSCULAR HEMOGLOBIN CONCENTRATION ([…], time 14 day): 36.24 G/DL
MEAN CORPUSCULAR VOLUME ([…], time 14 day): 56.98 fL
MONOCYTE ([…], time 14 day): 3.4%
NEUTROPHIL ([…], time 14 day): 10.6%
NUCLEATED RED BLOOD CELLS ([…], time 14 day): 0 /100WBC
PLATELET COUNT ([…], time 14 day): 1103.4 x10E3/uL
ALANINE AMINOTRANSFERASE ([…], time 14 day): 58.8 u/L
ALBUMIN ([…], time 14 day): 4.18 G/DL
ALKALINE PHOSPHATASE ([…], time 14 day): 347.4 u/L
ASPARTATE AMINOTRANSFERASE ([…], time 14 day): 113.2 u/L
BLOOD UREA NITROGEN ([…], time 14 day): 20 mg/dL
CARBON DIOXIDE ([…], time 14 day): 28 mmol/L
CHLORIDE ([…], time 14 day): 100.8 MEQ/L
CHOLESTEROL ([…], time 14 day): 80.8 mg/dL
CREATININE ([…], time 14 day): 0.27 mg/dL
GLUCOSE ([…], time 14 day): 164.4 mg/dL
LACTATE DEHYDROGENASE ([…], time 14 day): 192 u/L
LIPASE ([…], time 14 day): 10.8 u/L
PHOSPHORUS ([…], time 14 day): 12.48 mg/dL
POTASSIUM ([…], time 14 day): 6.05 MEQ/L
SODIUM ([…], time 14 day): 146.34 MEQ/L
TOTAL BILIRUBIN ([…], time 14 day): 0.3 mg/dL
TOTAL PROTEIN ([…], time 14 day): 6.3 G/DL
URIC ACID ([…], time 14 day): 1.32 mg/dL

Reference: ChEMBL document CHEMBL3885881, “DrugMatrix”
